Results published in patent US9955688B2, “Biocidal aldehyde composition” (priority 2015, dated 2018).

What was measured:
[1] = tested on: biofilm communities of E. faecalis; assay: Biofilm formation / LIVE/DEAD staining assay on E. faecalis biofilm communities; type: cell-based; conditions: components tested separately
Excerpt: In experiments, biofilm communities of E. faecalis were created following the techniques of Bergenholtz and Chavez, J. Endo. Coating (2010), using the present formulation. […] This was confirmed by a staining LIVE/DEAD assay. […] Clearly, Glutaraldehyde alone is not as effective as BAK, nor vice versa. Together in “proper ratio” the formula is outstanding at reducing biofilm as well as killing the necessary bacteria. This synergy was confirmed by the fractional inhibitory concentration index (FICI). The FICI for a synergistic mixture, using checkerboard, gave the combination of Glut/BAK a 0.35 FICI which is inhibitory. [Greene et al., App Env Micro Vol 72: 5254-5259 (2006)]. Mixtures according to this test are synergistic when the lowest FICI is below 0.8 therefore giving credence to the present concept. Synergy of Glut/BAK is known but has not been fully tested since the tested material has been Glut/Quats (dual chains) and not BAK. […] The present determination of 4:1 (Glut:BAK), FICI independently determined, corrects this missing component to make an effective formulation. Strong synergy has been shown between Glut/BAK (FICI 0.35). The biofilm reduction/penetration ability of BAK combined with the broad spectrum biocidal activities of Glut enable and achieve, at lower concentrations, due to synergy, the destruction of the SRBs in oil/gas as well the pertinent bacteria in health care.
This was confirmed by the staining LIVE/DEAD assay. […] Glutaraldehyde alone is not as effective as BAK. Together in proper ratio the formula is outstanding at reducing biofilm as well as killing the necessary bacteria, and provides an excellent synergistic complimentary approach to eliminating the bacterial/biofilm problem.

[2] = tested on: E. Coli, P. aeruginosa, salmonella typhii, and kiebsiella; assay: MIC of disinfectants by agar dilution; type: cell-based; conditions: individually determined
Procedure: In addition to the foregoing, E. Coli, P. aeruginosa, salmonella typhii, and kiebsiella were tested using selective media and biochemical means. Disk diffusion methods were used testing disinfectant resistance by measuring zones of inhibition after eighteen hours of incubation. MICs of disinfectants were determined by agar dilution. […] The preferred determined exposure is actually 4× of Glut to BAK as determined by log reduction effectiveness. This was supported by running an MIC (inhibitory) versus a MBC (bactericidal) test. Using the McFarland standard on E. coli, with the combination Glut/BAK, the result was that the bactericidal amount was 2× the inhibitory amount in ppm. This was done via serial dilutions on media Nutrient Broth.

[3] = Check of Glutaraldehyde content when combined with BAK at the CMC; type: physicochemical
Excerpt: The multi-level mechanism of action is as follows. The Glutaraldehyde produces an inherent bacteriocidal effect. BAK lowers surface tension and thus aids in the spread of the Glut on the biofilm covered surface and serves as a binding agent between the Glut and the application surface. The BAK spreads the Glutaraldehyde on the cell surface and increases depth of penetration. Thus, the BAK and Glutaraldehyde are mutually synergistic in attacking and achieving the desired kill effect. Because BAK is a quaternary ammonium salt one would suppose that it would react adversely with the Glutaraldehyde and cause aldehyde consumption. For this reason it became mandatory to check the Glutaraldehyde content and determine if there was a decrease at the CMC. […] This is likely correct due to the small BAK concentration necessary to reach the CMC. […] As a matter of fact it acted synergistically to enhance cidal effects due to its surfactant action.

biofilm = conditions: Flow Cytometry, MetaMorph image analysis; cited from earlier work
[4] = Pendant drop surface tension measurement (Tate's equation); type: physicochemical; conditions: pendant drop method, ten drops
Excerpt: BAK's ability to repel biofilm formation as well as penetrate is based upon the physico/chemical and steric changes provoked by hydrophobic changes and electrostatic repulsion. This is due to the positively charged nitrogen that reacts with the acidic phospholipids in the cell membrane. This is the area of penetration bringing along the Glut (cidal component) increasing surface pressure which decreases the adhesive potential by affecting the osmoregularity of bacterial adhesins. […] The BAK molecules at the proper concentration are saturated or at the critical micelle concentration (CMC). When the BAK is above the CMC and the surface tension is constant the best wetting properties are achieved. The stated BAK concentration is important since low doses can actually stimulate metabolic reactions as well as cause resistance. Again the proper importance of “concentration ratios” develops the full synergistic effect. In an example the pendant drop method was used to determine surface tension activity of BAK. Ten drops were measured with a precision balance to calculate surface energy. Tate's equation was used for calculation. It was concluded that the surface tension was reduced by approximately 53%. This illustrates that the addition of the BAK to the formulation permits a better spreading of the solution.

Compound | kill (LIVE/DEAD staining) [1] | MIC [2] [%] | reduction in Glutaraldehyde content when combined with BAK [3] | penetration of biofilm (biofilm) | bio-volume reduction [1] | surface tension reduction [4]
O=CCCCC=O [Glutaraldehyde] | 45% | 0.3 | did not show any reduction | little or no penetration of biofilm | – | –
benzalkonium chloride [BAK] | less so | 0.13 | – | peripheral penetration followed by inward migration | over 70 fold | approximately 53%
